Measured values taken from ChEMBL document CHEMBL3885861, “Open TG-GATES”.

Organism: Rattus norvegicus
Assay: Open TG-GATES - Regimen: Single
Type: toxicity, organism-based, Sprague-Dawley
Design: regimen Single, gender Male, age 6 weeks
Settings: in vivo, po, 2000 mg/kg, route gavage, dose level High; for APTT / Bas / Eos / Fbg / Hb / Ht / Lym / MCH / MCHC / MCV / Mono / Neu / PT / Plat / RBC / Ret / WBC: tissue Blood; for KIDNEY_L / KIDNEY_R / KIDNEY_TOTAL: tissue Kidney; for LIVER: tissue Liver; for A/G / ALP / ALT / AST / BUN / CRE / Ca / Cl / DBIL / GLC / IP / K / LDH / Na / PL / RALB / TBIL / TC / TG / TP / gamma-GTP: tissue Plasma

Work on CCN1CCCC1CNC(=O)c1cc(S(N)(=O)=O)ccc1OC (stereo unspecified) [SULPIRIDE] yielded a TERMINAL_BW (3 h) of 201.8 g, an APTT (3 h) of 18.6 s and a Bas (3 h) of 0%. For the same compound, the Eos (3 h) was 0.6%, the Fbg (3 h) was 244.2 mg/dL and the Hb (3 h) was 12.7 g/dL. For the same compound, the Ht (3 h) was 39.6%, the Lym (3 h) was 82% and the MCH (3 h) was 21 pg. For the same compound, the MCHC (3 h) was 32.2%, the MCV (3 h) was 65.4 fL and the Mono (3 h) was 3.2%. It also gave a Neu (3 h) of 13%, a PT (3 h) of 13.9 s and a Plat (3 h) of 117.9 x10_4/uL. For the same compound, the RBC (3 h) was 606.4 x10_4/ul, the Ret (3 h) was 7.7% and the WBC (3 h) was 82.3 x10_2/uL. It also gave a KIDNEY_L (3 h) of 0.9 g, a KIDNEY_R (3 h) of 0.9 g and a KIDNEY_TOTAL (3 h) of 1.8 g. The LIVER (3 h) was 9 g, the A/G (3 h) was 0.9 and the ALP (3 h) was 1446.6 IU/L. It also gave an ALT (3 h) of 42 IU/L, an AST (3 h) of 74.6 IU/L and a BUN (3 h) of 9.4 mg/dL. The CRE (3 h) was 0.2 mg/dL, the Ca (3 h) was 10.6 mg/dL and the Cl (3 h) was 105.4 meq/L. For the same compound, the DBIL (3 h) was 0.004 mg/dL, the GLC (3 h) was 174 mg/dL and the IP (3 h) was 8.8 mg/dL. The K (3 h) was 3.9 meq/L, the LDH (3 h) was 90.2 IU/L and the Na (3 h) was 143.4 meq/L. It also gave a PL (3 h) of 119.6 mg/dL, an RALB (3 h) of 2.3 g/dL and a TBIL (3 h) of 0.068 mg/dL. The TC (3 h) was 57.6 mg/dL, the TG (3 h) was 55 mg/dL and the TP (3 h) was 4.9 g/dL. For the same compound, the gamma-GTP (3 h) was 1.2 IU/L, the TERMINAL_BW (6 h) was 199.5 g and the APTT (6 h) was 17 s. It also gave a Bas (6 h) of 0%, an Eos (6 h) of 0.8% and a Fbg (6 h) of 273 mg/dL. It also gave a Hb (6 h) of 13 g/dL, a Ht (6 h) of 40.9% and a Lym (6 h) of 76.6%. It also gave an MCH (6 h) of 20.9 pg, an MCHC (6 h) of 31.9% and an MCV (6 h) of 65.6 fL. It also gave a Mono (6 h) of 2.6%, a Neu (6 h) of 19% and a PT (6 h) of 13.4 s. For the same compound, the Plat (6 h) was 121.6 x10_4/uL, the RBC (6 h) was 623.8 x10_4/ul and the Ret (6 h) was 7.6%. It also gave a WBC (6 h) of 63.1 x10_2/uL, a KIDNEY_L (6 h) of 0.9 g and a KIDNEY_R (6 h) of 0.9 g. The KIDNEY_TOTAL (6 h) was 1.7 g, the LIVER (6 h) was 8.1 g and the A/G (6 h) was 0.9. The ALP (6 h) was 1306.2 IU/L, the ALT (6 h) was 39.6 IU/L and the AST (6 h) was 74.2 IU/L. The BUN (6 h) was 7.2 mg/dL, the CRE (6 h) was 0.1 mg/dL and the Ca (6 h) was 10.5 mg/dL. It also gave a Cl (6 h) of 106.4 meq/L, a DBIL (6 h) of 0 mg/dL and a GLC (6 h) of 163.6 mg/dL. It also gave an IP (6 h) of 9.1 mg/dL, a K (6 h) of 4 meq/L and an LDH (6 h) of 92 IU/L. For the same compound, the Na (6 h) was 142.4 meq/L, the PL (6 h) was 133.2 mg/dL and the RALB (6 h) was 2.4 g/dL. It also gave a TBIL (6 h) of 0.07 mg/dL, a TC (6 h) of 72.2 mg/dL and a TG (6 h) of 35.2 mg/dL. The TP (6 h) was 5.2 g/dL and the gamma-GTP (6 h) was 1 IU/L.
